Where two headings read alike, the source gives them in different places.
Legend:
[1] = system: Burkitt's lymphoma (CA 46, ATCC No. CRL 1648); test: Inhibition of tumor cell growth, MTT-assay, Burkitt's lymphoma; type: cell-based, human
Method: (§1) The KB cell lines were grown in Dulbecco's modified Eagle's medium (4,5 g glucose/l). To the cultures of KB-C1 cells 1 μg of colchicine/ml, and to the hydroxyurea-resistant KB-HU cells 1 mM hydroxyurea was added every other week. […] 3,000 - 10,000 cells in 200 μl medium were seeded per well into 96-well plates. […] Approximately 10,000 cells per 100 μl were seeded in 96-well plates. […] The substances were dissolved in dimethylsulfoxide (DMSO). […] Subsequently, the samples were fixed, washed, and the absorption was determined by a microplate reader.

[2] = system: HeLa (epitheloid cervix carcinoma); test: Inhibition of tumor cell growth, SRB-assay, HeLa; type: cell-based, human
[3] = system: HT-29 (colon adenocarcinoma); test: Inhibition of tumor cell growth, SRB-assay, HT-29; type: cell-based, human
Method: as §1

MEXF 276L (melanoma) = test: Inhibition of tumor cell growth, SRB-assay, MEXF 276L; type: cell-based, human; settings: Table 2, 72 hours
Method: as §1

[4] = system: CCRF-CEM (acute lymphoblastic leukemia); test: Inhibition of tumor cell growth, MTT-assay, CCRF-CEM; type: cell-based, human; settings: Table 2, 72 hours
[5] = system: KB-3-1 (human oral epidermoid carcinoma); test: Inhibition of tumor cell growth, SRB-assay, KB-3-1; type: cell-based; settings: read-out: In vitro-activity against human tumor cell lines, KB-3-1
Method: (§2) In order to obtain information about the growth-inhibiting action on tumor cells, the inhibition of the growth of the following human tumor cells was determined: Burkitt's lymphoma (CA 46, ATCC No. CRL 1648), CCRF-CEM (acute lymphoblastic leukemia, ATCC No. CCL 119), K562 (chronic myelogenous leukemia, ATTC No. CCL 243), HeLa (epitheloid cervix carcinoma, ATCC No. CCL 2), MEXF 276L (melanoma), HT-29 (colon adenocarcinoma, ATCC No. HTB 38), KB-3-1 (human oral epidermoid carcinoma, CTCC No. CCL 17), KB-HU hydroxyurea-resistant, multidrug-resistant KB-C1 cells (Akiyama et al, Cell. Mol Genet., 11:117–126, 1985). Burkitt's, CCRF-CEM, HeLa and MEXF 276L cells were grown in RPMI 1640, HT-29 cells in McCoy's 5A medium. The KB cell lines were grown in Dulbecco's modified Eagle's medium (4,5 g glucose/l). To the cultures of KB-C1 cells 1 μg of colchicine/ml, and to the hydroxyurea-resistant KB-HU cells 1 mM hydroxyurea was added every other week. The media were supplemented with 10% fetal calf serum (except Burkitt's lymphoma cells with 15%), 2 mM glutamine, 50 units/ml penicillin and 50 μg/ml streptomycin. Inhibition of growth of HeLa, HT-29, KB and MEXF 276L cells was detected by the SRB-assay (Skehan et al, J. Natl Cancer Inst., 82:1107–1112, 1990). 3,000 - 10,000 cells in 200 μl medium were seeded per well into 96-well plates. Dose-response curves for CCRF-CEM and Burkitt's lymphoma cells were effected by an MTT-assay (Mosman, J. Immunol Methods, 65:55–63, 1983) from Boehringer Mannheim, Mannheim, Germany. Approximately 10,000 cells per 100 μl were seeded in 96-well plates. After an initial incubation of four hours, various substance concentrations were added, and the cells were incubated at 37° C. in a water-saturated atmosphere of 95% air and 5% CO2 for 72 hours. The substances were dissolved in dimethylsulfoxide (DMSO). The concentration of DMSO was 0.5%, and this was not toxic to the cells. Subsequently, the samples were fixed, washed, and the absorption was determined by a microplate reader.

[6] = system: KB-HU hydroxyurea-resistant cells; test: Inhibition of tumor cell growth, SRB-assay, KB-HU; type: cell-based, human; settings: Table 4, 72 hours, read-out: In vitro-activity against human tumor cell lines, KB-HU
Method: as §2

[7] = system: multidrug-resistant KB-C1 cells; test: Inhibition of tumor cell growth, SRB-assay, KB-C1; type: cell-based, human; settings: read-out: In vitro-activity against human tumor cell lines, KB-C1
Method: as §2

[8] = system: human tumor grafts (cell lines of FIG. 1); test: Colony forming assay (two-layer soft agar); type: cell-based; settings: for IC50 / IC90 / Mean IC70: mean values of all cell lines tested in FIG. 1, continuous exposure 3 to 6 days
Method: An excellent correlation of drug response in patients and the colony forming assay has been found (Scholz et al, Eur. J. Cancer 25:901–905, 1990). Solid human tumors were grown as grafts in nude mice, removed from the latter, mechanically comminuted and subsequently incubated in an enzyme cocktail consisting of collagenase (1.2–1.8 U/ml), DNAse (375 U/ml) and hyaluronidase (29 U/ml) in RPMI 1640 medium at 37° C. for 30 minutes. The cell mixture was passed through sieves of 200 μm and 50 μm mesh size and washed thereafter twice with PBS (phosphate buffered saline). The percentage of live cells was determined using a Neubauer counting chamber and trypan blue staining.
The colony forming assay was performed according to a two-layer agar technique introduced and modified by Hamburger and Salmon (Hamburger and Salmon, Science, 197:461–463, 1977). The bottom layer consisted of 0.2 ml of Iscoves's Modified Dulbecco's medium with 20% fetal calf serum and 0.75% agar. 8×10^3 to 1.6×10^4 cells were added to the same medium and 0.4% agar and plated in 24-multiwell plates onto the base layer. One day after the plating (with continuous exposure), the substances were added in 0.2 ml medium. Each plate included six controls containing the solvent only, and the treated groups contained 6 concentrations of the substances, each in triplicate. Cultures were incubated at 37° C. and 7% CO2 in a water-saturated atmosphere for 3 to 6 days, depending on the doubling time of the tumor cells. At the time of maximum colony formation with a size of […], counts were performed with an automatic image analysis system. 24 h prior to counting, live colonies were stained with a sterile aqueous solution of 2-(4-iodophenyl)-3-(4-nitrophenyl)-5-phenyltetrazolium chloride (1 mg/ml, 100 μl/well). The results of the tests are given in FIG. 1, and in the following Table 5, respectively. […] Columns pointing towards the right show a slighter than average activity.

[9] = Table 2, 72 hours, read-out: IC50 Burkitts
[10] = Table 2, 72 hours, read-out: IC50 HeLa (converted)
[11] = Table 2, 72 hours, read-out: IC50 HT-29 (converted)
[12] = Table 4, 72 hours, read-out: In vitro-activity against human tumor cell lines, Burkitts
[13] = Table 4, 72 hours, read-out: In vitro-activity against human tumor cell lines, HeLa
[14] = Table 4, 72 hours, read-out: In vitro-activity against human tumor cell lines, HT-29

SMILES: CC(=NNc1nc2ccccc2[nH]1)c1cccnn1 [Ib-1]
- IC50 [1, 9]: 840 nM
- IC50 [2, 10]: 1230 nM
- IC50 [3, 11]: 2060 nM
- IC50 (MEXF 276L (melanoma); read-out: IC50 MEXF276L): 2140 nM
- IC50 [4]: 980 nM

SMILES: CC(=NNc1nc2ccccc2o1)c1cccnn1 [Ib-3]
- IC50 [1, 9]: 1340 nM
- IC50 [2, 10]: 1250 nM
- IC50 [3, 11]: 1770 nM
- IC50 (MEXF 276L (melanoma); read-out: IC50 MEXF276L): 1960 nM
- IC50 [4]: 720 nM

SMILES: CC(=NNc1nc2ccccc2[nH]1)c1ccc(C)nn1 [Ib-4]
- IC50 [1, 9]: 1870 nM
- IC50 [2, 10]: 1990 nM
- IC50 [3, 11]: 1960 nM
- IC50 (MEXF 276L (melanoma); read-out: IC50 MEXF276L): 2360 nM
- IC50 [4]: 1300 nM

SMILES: CC(=NNc1nc2ccccc2o1)c1ccc(C)nn1 [Ib-5]
- IC50 [1, 9]: 840 nM
- IC50 [2, 10]: 1610 nM
- IC50 [3, 11]: 1040 nM
- IC50 (MEXF 276L (melanoma); read-out: IC50 MEXF276L): 2250 nM
- IC50 [4]: 460 nM

SMILES: CC(=NNc1nc2ccccc2[nH]1)c1ccncn1 [Ib-6, 1-(4-Pyrimidinyl)-1-ethanone-1-(1H-benzo[d]imidazol-2-yl)-hydrazone]
- IC50 ([1]; Homo sapiens, CA46, Table 2, 72 hours, read-out: IC50 Burkitts): 560 nM
- IC50 ([2]; Homo sapiens, HeLa, Table 2, 72 hours, read-out: IC50 HeLa (converted)): 880 nM
- IC50 ([3]; Homo sapiens, HT-29, Table 2, 72 hours, read-out: IC50 HT-29 (converted)): 570 nM
- IC50 (MEXF 276L (melanoma); Homo sapiens, MEXF276L): 910 nM
- IC50 ([4]; Homo sapiens, CCRF-CEM): 410 nM

SMILES: CC(=NNc1nc2ccccc2n1C)c1ncccc1Cl [Id-3]
- IC50 [1, 12]: 4 nM
- IC50 [2, 13]: 250 nM
- IC50 [3, 14]: 540 nM
- IC50 ([5]; Table 4, 72 hours): 310 nM
- IC50 [6]: 180 nM
- IC50 ([7]; Table 4, 72 hours): 300 nM

SMILES: CC(=NNc1nc2ccccc2n1C)c1cc(Cl)ccn1 [Id-4, 1-(4-Chloro-2-pyridyl)-1-ethanone-1-(1-methyl-1H-benzo[d]imidazol-2-yl)-hydrazone]
- IC50 ([1]; Homo sapiens, CA46, Table 4, 72 hours, read-out: In vitro-activity against human tumor cell lines, Burkitts): 4 nM
- IC50 ([2]; Homo sapiens, HeLa, Table 4, 72 hours, read-out: In vitro-activity against human tumor cell lines, HeLa): 170 nM
- IC50 ([3]; Homo sapiens, HT-29, Table 4, 72 hours, read-out: In vitro-activity against human tumor cell lines, HT-29): 520 nM
- IC50 ([5]; Homo sapiens, KB 3-1, Table 4, 72 hours): 71 nM
- IC50 ([6]; Homo sapiens): 270 nM
- IC50 ([7]; Homo sapiens, KBC-1, Table 4, 72 hours): 90 nM
- IC50 ([8]; Homo sapiens): 301 nM
- IC90 ([8]; Homo sapiens): 4290 nM
- tumor type selectivity ([8]; colony forming assay, IC70 pattern, FIG. 1): selectivity for colon, breast, ovarian, and uterus tumors
- Mean IC70 [8]: 956 nM

SMILES: CC(=NNc1nc2ccccc2n1C)c1cccc(Cl)n1 [Id-5]
- IC50 [1, 12]: 12 nM
- IC50 [2, 13]: 190 nM
- IC50 [3, 14]: 320 nM
- IC50 ([5]; Table 4, 72 hours): 7 nM
- IC50 [6]: 20 nM
- IC50 ([7]; Table 4, 72 hours): 30 nM
- IC50 [8]: 3300 nM
- IC90 [8]: 9380 nM
- Mean IC70 [8]: 5740 nM

SMILES: CC(=NNc1nc2ccccc2n1C)c1cccc(Br)n1 [Id-6]
- IC50 [1, 12]: 2490 nM
- IC50 [2, 13]: 3250 nM
- IC50 [3, 14]: 3150 nM
- IC50 ([5]; Table 4, 72 hours): 1690 nM
- IC50 [6]: 3890 nM
- IC50 ([7]; Table 4, 72 hours): 2130 nM

SMILES: CC(=NNc1nc2ccccc2n1C)c1cccc(C)n1 [Id-10]
- IC50 [1, 12]: 110 nM
- IC50 [2, 13]: 380 nM
- IC50 [3, 14]: 800 nM
- IC50 ([5]; Table 4, 72 hours): 490 nM
- IC50 [6]: 2230 nM
- IC50 ([7]; Table 4, 72 hours): 1800 nM

SMILES: CC(=NNc1nc2ccccc2n1C)c1ncccc1N(C)C [Id-11]
- IC50 [1, 12]: 2 nM
- IC50 [2, 13]: 20 nM
- IC50 [3, 14]: 160 nM
- IC50 ([5]; Table 4, 72 hours): 8 nM
- IC50 [6]: 240 nM
- IC50 ([7]; Table 4, 72 hours): 60 nM
- IC50 [8]: 137 nM
- IC90 [8]: 2900 nM
- Mean IC70 [8]: 397 nM

SMILES: CC(=NNc1nc2ccccc2n1C)c1cccc(N(C)C)n1 [Id-13]
- IC50 [1, 12]: 2010 nM
- IC50 [2, 13]: 6600 nM
- IC50 [3, 14]: 17600 nM
- IC50 ([5]; Table 4, 72 hours): 4020 nM
- IC50 [6]: 4900 nM
- IC50 ([7]; Table 4, 72 hours): 29500 nM

SMILES: CC(=NNc1nc2ccccc2n1C)c1ncccc1-c1ccccc1 [Id-14]
- IC50 [1, 12]: 10 nM
- IC50 [2, 13]: 70 nM
- IC50 [3, 14]: 70 nM
- IC50 ([5]; Table 4, 72 hours): 550 nM
- IC50 [6]: 700 nM
- IC50 ([7]; Table 4, 72 hours): 1420 nM

SMILES: CC(=NNc1nc2ccccc2n1C)c1cc(-c2ccccc2)ccn1 [Id-15]
- IC50 [1, 12]: 30 nM
- IC50 [2, 13]: 40 nM
- IC50 [3, 14]: 50 nM
- IC50 ([5]; Table 4, 72 hours): 140 nM
- IC50 [6]: 120 nM
- IC50 ([7]; Table 4, 72 hours): 230 nM
- IC50 [8]: 429 nM
- IC90 [8]: 5670 nM
- Mean IC70 [8]: 1017 nM

SMILES: CC(=NNc1nc2ccccc2n1C)c1ccc(-c2ccccc2)cn1 [Id-16]
- IC50 [1, 12]: 30 nM
- IC50 [2, 13]: 180 nM
- IC50 [3, 14]: 250 nM
- IC50 ([5]; Table 4, 72 hours): 250 nM
- IC50 [6]: 190 nM
- IC50 ([7]; Table 4, 72 hours): 180 nM
- IC50 [8]: 965 nM
- IC90 [8]: 7450 nM
- Mean IC70 [8]: 2084 nM
